5 compounds from patent US9499550B2 (BRISTOL-MYERS SQUIBB COMPANY, priority 2012, dated 2016) can be followed below.

pEC50: −log10 of the molar value.

Experiment [1] has as its system HCV genotype 1a (H77 strain) replicon in HUH-7 cells. Description: HCV replicon luciferase reporter assay, genotype 1a. As to conditions: Hepatitis C virus, Huh-7, 72 h, HCV genotype 1a replicon luciferase, 3 days incubation, read-out: LE_1a (EC50, range). The class given is cell-based. The method, boiled down:
(§1)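 Replicon inhibition for both genotypes was measured as Renilla luciferase signal (EnduRen, 7.5 μM final, 2 h) after 3-day, 37° C exposure of replicon-bearing HUH-7 cells in 4% FCS DMEM, 0.5% DMSO. The 1b construct carries S1179I; the 1a H77 construct carries P1496L and S2204I. Twenty-point, 3-fold dilutions were fitted four-parametrically for EC50, and CC50 was taken from multiplexed Cell Titer-Blue.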

For experiment [2], the system named is HCV genotype 1b (Con1) replicon in HUH-7 cells. Description: HCV replicon luciferase reporter assay, genotype 1b. Format: cell-based. As to conditions: Hepatitis C virus, Huh-7, 72 h, HCV genotype 1b replicon luciferase, 3 days incubation, read-out: LE_1b (EC50, range). The method, boiled down:
as §1
Background: A replicon is a self-replicating genome or part of one, used to study replication in cells.

In general, pEC50 refers to −log10 of the EC50, conventionally taken in molar units. For `COc1ccc2c(O[C@@H]3C[C@H]4C(=O)N[C@]5(C(=O)NS(=O)(=O)C6(C)CC6)C[C@H]5/C=C\CC[C@@H](C)C[C@@H](C)[C@H](NC(=O)OC(C)(C)C(C)(F)F)C(=O)N4C3)nc3c(c2c1)CCCO3` [Compound 6082, 3,3-difluoro-2-methylbutan-2-yl((2R,6S,7R,9R,13aS,14aR,16aS,Z)-2-((9-methoxy-2,3-dihydro-1H-pyrano[2,3-c]isoquinolin-6-yl)oxy)-7,9-dimethyl-14a-(((1-methylcyclopropyl)sulfonyl)carbamoyl)-5,16-dioxo-1,2,3,5,6,7,8,9,10,11,13a,14,14a,15,16,16a-hexadecahydrocyclopropa[e]pyrrolo[1,2-a][1,4]diazacyclopentadecin-6-yl)carbamate], the pEC50 in experiment [1] is 9.00 to 9.29; in experiment [2] it was 8.30 to 9.00.
Regarding `COc1ccc2c(O[C@@H]3C[C@H]4C(=O)N[C@]5(C(=O)NS(=O)(=O)C6(C)CC6)C[C@H]5/C=C\CC[C@@H](C)C[C@@H](C)[C@H](NC(=O)OC(C)(C)C(F)F)C(=O)N4C3)nc3c(c2c1)CCCO3` [Compound 6084, 1,1-difluoro-2-methylpropan-2-yl((2R,6S,7R,9R,13aS,14aR,16aS,Z)-2-((9-methoxy-2,3-dihydro-1H-pyrano[2,3-c]isoquinolin-6-yl)oxy)-7,9-dimethyl-14a-(((1-methylcyclopropyl)sulfonyl)carbamoyl)-5,16-dioxo-1,2,3,5,6,7,8,9,10,11,13a,14,14a,15,16,16a-hexadecahydrocyclopropa[e]pyrrolo[1,2-a][1,4]diazacyclopentadecin-6-yl)carbamate], the pEC50 is 9.30 to 10.00 in experiment [1] and 9.00 to 9.29 in experiment [2].
Regarding `CC[C@@H]1C[C@H](C)CC/C=C\[C@@H]2C[C@@]2(C(=O)NS(=O)(=O)C2(CF)CC2)NC(=O)[C@@H]2C[C@@H](Oc3nc4c(c5cc(OC)ccc35)CCCO4)CN2C(=O)[C@H]1NC(=O)OC(C)(C)C(F)(F)F` [Compound 6086, 1,1,1-trifluoro-2-methylpropan-2-yl((2R,6S,7R,9R,13aS,14aR,16aS,Z)-7-ethyl-14a-(((1-(fluoromethyl)cyclopropyl)sulfonyl)carbamoyl)-2-((9-methoxy-2,3-dihydro-1H-pyrano[2,3-c]isoquinolin-6-yl)oxy)-9-methyl-5,16-dioxo-1,2,3,5,6,7,8,9,10,11,13a,14,14a,15,16,16a-hexadecahydrocyclopropa[e]pyrrolo[1,2-a][1,4]diazacyclopentadecin-6-yl)carbamate], the pEC50 in experiment [1] and in experiment [2] was 7.46 to 8.30 throughout.
Turning to `CC[C@@H]1C[C@H](C)CC/C=C\[C@@H]2C[C@@]2(C(=O)NS(=O)(=O)C2(CF)CC2)NC(=O)[C@@H]2C[C@@H](Oc3nc4c(c5cc(OC)ccc35)CCCO4)CN2C(=O)[C@H]1NC(=O)OC(C)(C)C(C)(F)F` [Compound 6088, 3,3-difluoro-2-methylbutan-2-yl((2R,6S,7R,9R,13aS,14aR,16aS,Z)-7-ethyl-14a-(((1-(fluoromethyl)cyclopropyl)sulfonyl)carbamoyl)-2-((9-methoxy-2,3-dihydro-1H-pyrano[2,3-c]isoquinolin-6-yl)oxy)-9-methyl-5,16-dioxo-1,2,3,5,6,7,8,9,10,11,13a,14,14a,15,16,16a-hexadecahydrocyclopropa[e]pyrrolo[1,2-a][1,4]diazacyclopentadecin-6-yl)carbamate], the pEC50 in experiment [1] and in experiment [2] was 7.46 to 8.30 each time.
With `CC[C@@H]1C[C@H](C)CC/C=C\[C@@H]2C[C@@]2(C(=O)NS(=O)(=O)C2(C)CC2)NC(=O)[C@@H]2C[C@@H](Oc3nc4c(c5cc(OC)ccc35)CCCO4)CN2C(=O)[C@H]1NC(=O)OC(C)(C)C(C)(F)F` [Compound 6090, 3,3-difluoro-2-methylbutan-2-yl((2R,6S,7R,9R,13aS,14aR,16aS,Z)-7-ethyl-2-((9-methoxy-2,3-dihydro-1H-pyrano[2,3-c]isoquinolin-6-yl)oxy)-9-methyl-14a-(((1-methylcyclopropyl)sulfonyl)carbamoyl)-5,16-dioxo-1,2,3,5,6,7,8,9,10,11,13a,14,14a,15,16,16a-hexadecahydrocyclopropa[e]pyrrolo[1,2-a][1,4]diazacyclopentadecin-6-yl)carbamate], the pEC50 in experiment [1] and in experiment [2] was 9.00 to 9.29 in each case.
